Reference: ChEMBL document CHEMBL6178005, “Novel Nonpeptide as Oxytocin Receptor Agonist” (ACS Med Chem Lett, 2025)

Molecular target: Vasopressin V1a receptor (Homo sapiens, UniProt P37288)
Test: Antagonist activity at vasopressin V1A receptor (unknown origin) assessed as calcium level
Assay type: functional

Vasopressin V1a receptor, sequence (P37288 whole entry): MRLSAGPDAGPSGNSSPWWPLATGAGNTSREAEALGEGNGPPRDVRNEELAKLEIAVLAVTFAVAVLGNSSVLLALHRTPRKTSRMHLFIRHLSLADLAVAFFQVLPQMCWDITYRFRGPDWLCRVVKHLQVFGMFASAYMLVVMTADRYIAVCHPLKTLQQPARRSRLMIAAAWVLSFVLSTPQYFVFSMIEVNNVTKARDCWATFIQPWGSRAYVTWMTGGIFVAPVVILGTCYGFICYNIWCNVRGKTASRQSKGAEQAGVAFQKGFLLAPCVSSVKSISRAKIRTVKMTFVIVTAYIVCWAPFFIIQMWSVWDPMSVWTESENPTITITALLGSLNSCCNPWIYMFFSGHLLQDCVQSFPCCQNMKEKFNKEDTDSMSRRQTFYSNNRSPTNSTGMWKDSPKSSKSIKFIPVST

IC50 | SMILES
2.43 µM | Cc1cc(C(=O)N2Cc3cnn(C)c3Nc3ccccc32)ccc1CNC(=O)N1C[C@H](OCc2cc(O)cc(O)c2)C[C@H]1C(=S)N(C)C
0.585 µM | Cc1cc(C(=O)N2Cc3cnn(C)c3Nc3ccccc32)ccc1CNC(=O)N1C[C@H](OCCO)C[C@H]1C(=S)N(C)C
